Literature values, collected in US9399756B2, “Functionalized fullerenes as a biomass stimulant and a life extension agent” (UNIVERSITY OF FLORIDA RESEARCH FOUNDATION, INC., priority 2010, dated 2016).

How the values were obtained:
mice [1] = conditions: Quick et al., Neurobiology of Aging 2008
mice [2] = conditions: injected; Zhou et al. 2009

Substance | lifespan of mice (mice [1]) | hair growth in mice (mice [2])
e,e,e-C60(C(CO2H)2)3 | may extend the lifespan of mice | 
(H23C11CO2)2CC60C(CO2CH2CO2H)2 |  | may stimulate hair growth in mice
